Assay results taken from paper PMC4864966, “Two unexpected promiscuous activities of the iron–sulfur protein IspH in production of isoprene and isoamylene” (Microbial Cell Factories, 2016).

Test system: T1, IspH
T1 construct: complete ORF in pET-28a(+) NcoI/XhoI, C-terminal His-tag, E. coli BL21(DE3) with isc operon, [4Fe-4S] cluster, Ni-NTA purified anaerobically
Experiment: headspace GC of isoamylene (2-methyl-2-butene and 3-methyl-1-butene) formation; Michaelis-Menten and Lineweaver-Burk
Format: biochemical, Bacillus sp. N16-5
Details: 1 mM NADPH, 20 µM Fd, 5 µM FNR, 2 mM DTT, 20 mM Tris-HCl pH 7.8, 150 mM NaCl, 37 °C, anaerobic; DMAPP 0.1 to 1 mM

CC(C)=CCOP(=O)(O)OP(=O)(O)O [DMAPP]
Km: ~275 µM
